Structures can show the parent of a compound that is named as a salt.
Experiments:
[1] = tested on: NIH 3T3 mouse fibroblast cells
Method: The mouse fibroblast cell line NIH-3T3, obtained from ATCC (Manassas, VA) was used for all in vitro cell-based experiments. Cell cultures were maintained at 37° C. and were fed with DMEM growth medium supplemented with 10% calf bovine serum (CBS), 2×10^−[…] (Invitrogen, Carlsbad, CA), and 1% Penicillin Streptomycin. Cells were seeded with 1.0×10^4 cells/well of the 96-well plate and were allowed to attach on the bottom of wells for 24 h. After incubation, cells were washed with […] Phosphate Buffer Saline (PBS); pH 7.4). […] Cells treated with 1% Triton X-100 (Sigma Aldrich, St Louis, MO) were used as controls for complete cell death. For the evaluation of cytotoxicity, the CellTiter 96 AQueous non-radioactive assay (Promega, Germany) was performed. This assay measures the conversion (reduction) of a weakly colored tetrazolium salt of MTS (3-{4,5-dimethylthiazol-2-yl}-5-{3-carboxymethoxyphenyl}-2-{4-sulfophenyl}-2H-tetrazolium) to brightly colored formazan by mitochondrial dehydrogenase of metabolically active (live) cells. The amount of formazan formed varies proportionally with the number of live cells. The wells were rinsed with PBS to remove non-adherent cells and then incubated in a serum-free medium containing 20% MTS reagent for 3 h at 37° C. Then, the absorbance was read in a spectrophotometric plate reader at 490 nm (BioTek Instruments, Winooski, VT).
Briefly, fibroblasts were allowed to attach on the bottom of 96-well plates (within 24-h incubation). […] Following incubation, the viability of the cells was determined by measuring cellular mitochondrial dehydrogenase activity (see Materials and Methods for details).

[2] = tested on: P. aeruginosa (ATCC 27853); settings: Ag+ 0.4 μg mL^−1; cited from earlier work
[3] = tested on: P. aeruginosa (ATCC 27853); experiment: Antibacterial activity of solutions of Bp, Ag+ or their mixture (viable counts after 24-h incubation); format: cell-based; settings: for CFU decrease of P. aeruginosa: 10^7 CFU in 500 μL HBSS
Method: Viable bacterial counts remaining in suspension following the 24-h incubation were determined by dilution and plating.

[4] = tested on: rats wounds; settings: 5 mg mL^−1 at local incisions of rats wounds; cited from earlier work
[5] = Bp 2.5 mg mL^−1; cited from earlier work

SMILES | toxicity toward fibroblasts ([1]; Ag+ 0.4 μg mL^−1 and up to 1.2 μg mL^−1, 24 h) | effect on viability of mammalian cells such as fibroblasts ([1]; Ag+ 1.7 μg mL^−1 and Bp 0.25 mg mL^−1) | CFU decrease of P. aeruginosa (reported) [2] [log10 CFU] | CFU decrease of P. aeruginosa ([3]; Ag+ 0.3 μg mL^−1, 24 h) [log10 CFU] | CFU decrease of P. aeruginosa ([3]; Ag+ 0.4 μg mL^−1, 24 h) [log10 CFU] | cytotoxicity limit (concentration of agent that caused a ~50% decrease in viability of cells) ([1]; mouse, 24 h, pH 7.4) [µg/mL] | antimicrobial activity ([3]; Bp 0.5 mg mL^−1, 24 h) | collagen production [4] | inflammation [4] | antimicrobial activity (reported) [5]
O=[N+]([O-])[O-].[Ag+] [Ag^+, Silver nitrate] | not to cause significant toxicity | do not significantly reduce the viability | 6 | 3 | 6 | – | – | – | – | –
CCCCN1CCCCC1C(=O)Nc1c(C)cccc1C (stereo not shown) [Bp, bupivacaine hydrochloride monohydrate] | – | – | – | – | – | 1.2 | does not exhibit antimicrobial activity | decrease collagen production | significant inflammation | exhibit antimicrobial activity
